The results in this text go back to publication PMC8615997, “The Pseudo-Symmetric N-benzyl Hydroxyethylamine Core in a New Series of Heteroarylcarboxyamide HIV-1 Pr Inhibitors: Synthesis, Molecular Modeling and Biological Evaluation” (Biomolecules, 2021).

The target in this assay is T1, recombinant wild-type HIV-1 PR (Human immunodeficiency virus type 1 group M subtype B, UniProt P04585).
T1 construct: recombinant wild-type HIV-1 PR from Bachem; purchased Bachem
Description: In vitro fluorometric HIV-1 protease inhibition assay (fluorogenic substrate Abz-Thr-Ile-Nle-Phe(p-NO2)-Gln-Arg-NH2, pH 5.5). The class given is biochemical. Conditions: for remaining activity at 0.0005 µM: read-out: residual activity at the 0.5 nM inhibitor. On the procedure:
IC50 values were determined at pH 5.5 using recombinant wild-type HIV-1 PR from Bachem and the fluorogenic substrate Abz-Thr-Ile-Nle-Phe(p-NO2)-Gln-Arg-NH2 (Abz-NF⁄-6; Bachem AG, Bubendorf, CH). […] The assay was performed as follows: Dilution Buffer: 100 mM MES buffer, pH 5.5, containing 400 mM NaCl, 1 mM EDTA, 1 mM DTT and 1 mg/mL BSA. Solution A: 10 μL of a substrate stock solution in DMSO (10 mg/ml, 10.6 mM) were diluted in 1.99 ml of dilution buffer to a final concentration of […]. Solution B: 10 μL of a protease stock solution (0.4 mg/mL) in 10 mM sodium phosphate buffer, pH 6.5, containing 1 mM EDTA, 10% glycerol, 0.05% mercaptoethanol, 50 mM NaCl, were diluted 100 times with the dilution buffer, pH 5.5, to a final concentration of 0.004 mg/ml.
Assay: 114 μL of solution A, 11 μL of solution B and 75 μL of the dilution buffer were pre-incubated in a cuvette at 25 °C, and the fluorescence was recorded at 325 nm excitation and 420 nm emission for 10 min. A total of 2 μL of the inhibitor in DMSO was then added, and the fluorescence was recorded for a further 10 min. […] IC50 was obtained by measuring the relative residual enzyme activity (ratio of the increase of fluorescence velocities before and after the addition of inhibitor) and by fitting the residual activity vs. inhibitor concentration semilog plots to a tetraparametric logistic function (Sigma plot 2001, SPSS Inc., Chicago, IL, USA). All the measures were triplicated.
IC50 values were obtained on recombinant wild-type HIV protease by measuring the initial rates of hydrolysis of the fluorogenic substrate Abz-Thr-Ile-Nle-Phe(NO2)-Gln-Arg (Table 1). The initial rates of the enzyme-catalyzed reactions were measured at different inhibitors concentrations, while the reference rates for the not-inhibited reactions were measured each time before the addition of the inhibitors. IC50 was obtained by measuring the relative residual enzyme activity (ratio of the increase of fluorescence velocities before and after the addition of inhibitor) and by fitting the residual activity vs. inhibitor concentration semilog plots to a tetraparametric logistic function.

As for `COc1ccc(S(=O)(=O)N(Cc2ccccc2)C[C@@H](O)[C@H](Cc2ccccc2)NC(=O)c2ccc3[nH]ccc3c2)cc1OC` [Compound 9c, N-((2S,3R)-3-hydroxy-4-(N-benzyl-3,4-dimethoxyphenylsulfonamido)-1-phenylbutan-2-yl)1H-indol-5-carboxamide], the remaining activity at 0.0005 µM worked out at 10.2%. `COc1ccc(S(=O)(=O)N(Cc2ccccc2)C[C@@H](O)[C@H](Cc2ccccc2)NC(=O)c2ccc3sccc3c2)cc1` [Compound 7b, N-((2S,3R)-3-hydroxy-4-(N-benzyl-4-methoxyphenylsulfonamido)-1-phenylbutan-2-yl)benzo[b]thiophene-5-carboxamide]: the IC50 was determined as 2.3 nM. As for `COc1ccc(S(=O)(=O)N(Cc2ccccc2)C[C@@H](O)[C@H](Cc2ccccc2)NC(=O)c2ccc3[nH]ccc3c2)cc1` [Compound 9b, N-((2S,3R)-3-hydroxy-4-(N-benzyl-4-methoxyphenylsulfonamido)-1-phenylbutan-2-yl)1H-indol-5-carboxamide], the remaining activity at 0.0005 µM came out at 36.3%. Consider `COc1ccc(S(=O)(=O)N(Cc2ccccc2)C[C@@H](O)[C@H](Cc2ccccc2)NC(=O)c2ccc3occc3c2)cc1` [Compound 8b, N-((2S,3R)-3-hydroxy-4-(N-benzyl-4-methoxyphenylsulfonamido)-1-phenylbutan-2-yl)benzofuran-5-carboxamide], for which the half-maximal inhibitory concentration (IC50) worked out at 9.6 nM. Regarding `O=C(N[C@@H](Cc1ccccc1)[C@H](O)CN(Cc1ccccc1)S(=O)(=O)c1ccc([N+](=O)[O-])cc1)c1ccc2occc2c1` [Compound 8a, N-((2S,3R)-3-hydroxy-4-(N-benzyl-4-nitrophenylsulfonamido)-1-phenylbutan-2-yl)benzofuran-5-carboxamide], the IC50 was 47 nM. As to `O=C(N[C@@H](Cc1ccccc1)[C@H](O)CN(Cc1ccccc1)S(=O)(=O)c1ccc([N+](=O)[O-])cc1)c1ccc2[nH]ccc2c1` [Compound 9a, N-((2S,3R)-3-hydroxy-4-(N-benzyl-4-nitrophenylsulfonamido)-1-phenylbutan-2-yl)1H-indol-5-carboxamide], the remaining activity at 0.0005 µM came to 27.7%. With `O=C(N[C@@H](Cc1ccccc1)[C@H](O)CN(Cc1ccccc1)S(=O)(=O)c1ccc([N+](=O)[O-])cc1)c1ccc2sccc2c1` [Compound 7a, N-((2S,3R)-3-hydroxy-4-(N-benzyl-4-nitrophenylsulfonamido)-1-phenylbutan-2-yl)benzo[b]thiophene-5-carboxamide], the IC50 was found to be 4.2 nM. Take `COc1ccc(S(=O)(=O)N(Cc2ccccc2)C[C@@H](O)[C@H](Cc2ccccc2)NC(=O)c2ccc3sccc3c2)cc1OC` [Compound 7c, N-((2S,3R)-3-hydroxy-4-(N-benzyl-3,4-dimethoxyphenylsulfonamido)-1-phenylbutan-2-yl)benzo[b]thiophene-5-carboxamide]: the IC50 stood at 6.2 nM. In the case of `COc1ccc(S(=O)(=O)N(Cc2ccccc2)C[C@@H](O)[C@H](Cc2ccccc2)NC(=O)c2ccc3occc3c2)cc1OC` [Compound 8c, N-((2S,3R)-3-hydroxy-4-(N-benzyl-3,4-dimethoxyphenylsulfonamido)-1-phenylbutan-2-yl)benzofuran-5-carboxamide], the IC50 was found to be 82 nM.

In general, IC50 refers to the concentration that gives 50% inhibition.
